Structures are written as SMILES.

Assay [1] relates to Schistosoma mansoni mature worms. As to the kind of experiment: In vitro S. mansoni worm killing. Particulars: Schistosoma mansoni, 120 h, day 5, initial test (Table 2), read-out: Worm killing (% of total). How it is done: The percentage reduction of worm or egg burden in each treated group was calculated. […] Results are expressed as mean ± SEM. A two-tailed, unpaired Student’s t-test was used to detect the significance of difference between the means of different groups. […] Stock solutions of 5 mM PZQ and the quinazoline derivatives 2–13 were prepared in DMSO. Concentrations of 100 µM, 50 µM, 25 µM, 10 µM and 5 µM were freshly prepared on the day of experiment in RPMI-1640 medium. All compounds were initially tested at 100 and 50 µM; those showing worm killing were further tested at 25, 10 and 5 µM. Worms were obtained from SBSC of TBRI. Six to eight worms were placed in 12-well tissue culture plates and fresh RPMI-1640 medium (supplemented with glutamine, 20% newborn calf serum and streptomycin, penicillin, and gentamicin), containing the indicated concentration of the test compound was added[20]^,[21]. Worms were incubated overnight in a CO2 incubator at 37 °C. On the 2nd day, worms were examined by microscopy, washed three times with normal saline, fresh medium was added and the incubation was continued. On the 3rd day, worm motility was observed and on the 4th day, medium was changed again. On day 5 (end of the observation period), worms were microscopically examined for their motility and appearance. Each concentration was tested in duplicate, and the final recording of percent worm mortality was determined as the number of dead worms [contracted and opaque] divided by the total number of worms × 100. Negative controls used medium without additions or medium with 2% DMSO; positive control media containing identical concentrations of PZQ were tested in parallel.

In assay [2] the test system is Schistosoma mansoni worm couples. Kind of assay: S. mansoni ovipositing capacity and coupling. Particulars: initial test (Table 2); for inhibition at 50 µM / inhibition at 100 µM: Schistosoma mansoni, 120 h, read-out: Reduction in number of eggs (%). The method, then: Stock solutions of 5 mM PZQ and the quinazoline derivatives 2–13 were prepared in DMSO. Concentrations of 100 µM, 50 µM, 25 µM, 10 µM and 5 µM were freshly prepared on the day of experiment in RPMI-1640 medium. All compounds were initially tested at 100 and 50 µM; those showing worm killing were further tested at 25, 10 and 5 µM. 12-well tissue culture plates were used, each well containing 6–8 worms with at least one worm couple. Worms were incubated overnight in a CO2 incubator at 37 °C. Each concentration was tested in duplicate wells. On day 4, eggs were counted and discarded and the medium was changed. On day 5 (end of observation period) newly deposited eggs were counted. The final egg number is the total count of days 4 and 5 for each concentration tested and the final recording of the percentage of egg reduction was determined as [the total number of eggs on days 4 and 5 of control – the total number of eggs on days 4 and 5 of treated]/the total number of eggs on days 4 and 5 of control × 100.

In the case of `COc1ccc(Cn2c(=O)c3cc(OC)c(OC)cc3n(Cc3ccc(C(F)(F)F)cc3)c2=O)cc1` [compound 11, 1-(4-(Trifluoromethyl)benzyl)-6,7-dimethoxy-3-(4-methoxybenzyl)quinazolin-2,4(1H,3H)-dione], in assay [1], the killing at 50 µM stood at 0% and the killing at 100 µM was found to be 86%. In addition, in assay [2] (50 µM), the Uncoupling result is on record as “Yes” and the inhibition at 50 µM amounted to 100%. For the same compound, in assay [2] (100 µM), the Uncoupling result is “Yes” and the inhibition at 100 µM turned out to be 100%.
With `O=c1c2cc(Br)ccc2n(Cc2ccc(C(F)(F)F)cc2)c(=O)n1Cc1ccc(F)cc1` [compound 4, 6-Bromo-3-(4-fluorobenzyl)-1-(4-(trifluoromethyl)benzyl)quinazolin-2,4(1H,3H)-dione], in assay [1], the killing at 50 µM came to 13% and the killing at 100 µM was found to be 100%. In assay [2] (50 µM), the Uncoupling result was “Yes” and the inhibition at 50 µM turned out to be 100%. In addition, in assay [2] (100 µM), the Uncoupling entry was “Yes” and the inhibition at 100 µM is 100%.
As for `COc1ccc(Cn2c(=O)c3cc(C)cc(Br)c3n(Cc3ccc(C(F)(F)F)cc3)c2=O)cc1` [compound 13, 8-Bromo-1-(4-(trifluoromethyl)benzyl)-3-(4-methoxybenzyl)-6-methylquinazolin-2,4(1H,3H)-dione], in assay [1], the killing at 50 µM was 0% and the killing at 100 µM worked out at 33%. In assay [2] (50 µM), the Uncoupling entry is reported as “Yes” and the inhibition at 50 µM worked out at 100%. In addition, in assay [2] (100 µM), the Uncoupling entry was “Yes” and the inhibition at 100 µM is 100%.
Turning to `COc1ccc(Cn2c(=O)c3cc(Br)ccc3n(Cc3ccc(C(F)(F)F)cc3)c2=O)cc1` [compound 5, 6-Bromo-1-(4-(trifluoromethyl)benzyl)-3-(4-methoxybenzyl)quinazolin-2,4(1H,3H)-dione], in assay [1], the killing at 50 µM stood at 0% and the killing at 100 µM is 100%. Besides, in assay [2] (50 µM), the Uncoupling result is reported as “No” and the inhibition at 50 µM is 31%. Besides, in assay [2] (100 µM), the Uncoupling entry is “Yes” and the inhibition at 100 µM amounted to 100%.
On to `O=c1c2ccccc2n(Cc2ccc(C(F)(F)F)cc2)c(=O)n1Cc1ccc(F)cc1` [compound 2, 3-(4-Fluorobenzyl)-1-(4-(trifluoromethyl)benzyl)quinazolin-2,4(1H,3H)-dione], for which, in assay [1], the killing at 50 µM was 0% and the killing at 100 µM stood at 100%. Moreover, in assay [2] (50 µM), the Uncoupling result is “No” and the inhibition at 50 µM stood at 100%. Besides, in assay [2] (100 µM), the Uncoupling result is reported as “Yes” and the inhibition at 100 µM stood at 100%.
With `Cc1cc(Br)c2c(c1)c(=O)n(Cc1ccc(F)cc1)c(=O)n2Cc1ccc(C(F)(F)F)cc1` [compound 12, 8-Bromo-3-(4-fluorobenzyl)-1-(4-(trifluoromethyl)benzyl)-6-methylquinazolin-2,4(1H,3H)-dione], in assay [1], the killing at 50 µM turned out to be 0% and the killing at 100 µM amounted to 0%. For the same compound, in assay [2] (50 µM), the Uncoupling result is on record as “No” and the inhibition at 50 µM stood at 50%. Further, in assay [2] (100 µM), the Uncoupling result is “Yes” and the inhibition at 100 µM stood at 100%.
As for `COc1ccc(Cn2c(=O)c3ccccc3n(Cc3ccc(C(F)(F)F)cc3)c2=O)cc1` [compound 3, 1-(4-(Trifluoromethyl)benzyl)3-(4-methoxybenzyl)quinazolin-2,4(1H,3H)-dione], in assay [1], the killing at 50 µM turned out to be 0% and the killing at 100 µM stood at 75%. Also, in assay [2] (50 µM), the Uncoupling entry is reported as “Yes” and the inhibition at 50 µM worked out at 100%. Besides, in assay [2] (100 µM), the Uncoupling result was “Yes” and the inhibition at 100 µM was determined as 100%.
`O=c1c2ccc(Br)cc2n(Cc2ccc(C(F)(F)F)cc2)c(=O)n1Cc1ccc(F)cc1` [compound 6, 7-Bromo-3-(4-fluorobenzyl)-1-(4-(trifluoromethyl)benzyl)quinazolin-2,4(1H,3H)-dione]: in assay [1], the killing at 50 µM was found to be 0% and the killing at 100 µM came to 88%. In assay [2] (50 µM), the Uncoupling entry is “Yes” and the inhibition at 50 µM worked out at 100%. Also, in assay [2] (100 µM), the Uncoupling entry is “Yes” and the inhibition at 100 µM turned out to be 100%.

The values above are taken from publication PMC7717570, “Deciphering the enzymatic target of a new family of antischistosomal agents bearing a quinazoline scaffold using complementary computational tools” (Journal of Enzyme Inhibition and Medicinal Chemistry, 2020).
